According to PMC9413440, “An Iterative Approach Guides Discovery of the FabI Inhibitor Fabimycin, a Late-Stage Antibiotic Candidate with In Vivo Efficacy against Drug-Resistant Gram-Negative Infections” (ACS Central Science, 2022):
Like-named read-outs stand apart in the source and are kept apart here.

Legend:
[1] = Pharmacokinetic assessment in neutropenic A. baumannii-infected mice; format: in vivo, mouse; conditions: for Cmax / AUC(0-t) / clearance / half-life: single dose; for TimeHigh: time above the MIC of the infective strain (2 µg/mL)
Excerpt: Pharmacokinetic assessment
The protocol to assess fabimycin’s pharmacokinetic properties in A. baumanii-infected mice (strain: AR-0088) was approved by the IACUC at Pharmacology Discovery Services, Taiwan, Ltd. (protocol mumber: PK001-09212018). In this study, neutropenic female BALB/c mice 7-8 weeks in age from BioLASCO Taiwan (AAALAC-certified Charles River Licensee) weighing 18 ± 2 grams were used.10 All animals were specific pathogen free. Mice were rendered neutropenic via cyclophosphamide (CP) administration by two intraperitoneal (IP) injections following a standard method for mouse thigh infection models.11 The first CP dose, 150 mg/kg, was administered at four days before infection (Day –4); and the second, 100 mg/kg, at 24 h before infection (Day –1), prior to infection on Day 0.
To inoculate the mice, A. baumannii cultures were first generated by seeding brain heart infusion (BHI, 20 mL) with an aliquot (0.2 mL) of a single-used glycerol stock of A. baumannii AR-0088 stored at -80 °C and incubating at 35-37 °C with shaking (250 rpm) for 6 hours. An aliquot of this culture (1.0 mL) was used to seed fresh BHI media (99 mL) and this shaken (250 rpm) at 35-37 °C for 16 hours. Bacterial cells were harvested by centrifuging 20 mL of this outgrowth culture (3,500 x g) for 15 minutes and re-suspending in fresh cold phosphate buffered saline (PBS, 10 mL). The optical density at 620 nm was measured and used to guide dilutions. PBS suspensions were stored on ice for no more than 1 hour prior to animal inoculation. The bacterial count in the challenge organism suspension was enumerated by dilution plating on to nutrient gar plates followed by 20-24 hour incubation. The target inoculum is 1.0 * 10^5 CFU/mouse for the strain […]
Fabimycin was IV administered once followed by terminal blood sampling at 8 time points with cardiac puncture (5, 15, 30, 45, 60, 120, 240, and 480 minutes). Terminal blood collection from cardiac puncture was conducted under CO2 euthanasia. Blood, 0.3-0.4 mL, was drawn into tubes coated with K2EDTA, mixed gently and kept on ice and centrifuged at 12,000 × g for 5 minutes at 4°C within 1 hour of collection. The plasma was harvested and stored at -80 °C until further processing. Thigh tissues were aseptically harvested from the left thigh of the infected animals, weighed, and homogenized in sterile PBS (3 mL, pH 7.4) with a Polytron homogenizer. The thigh homogenate was collected and stored at -80 °C until further processing.
For LC-MS/MS sample processing a 20 µL aliquot of each plasma and thigh sample was transferred to 96 well plate. A 300 µL aliquot of 0.01 ng/µL internal standard (IS), oxybutynin, in MeOH/FA=95/5 was added to each tube except for the double blank and carryover controls. A 300 μL aliquot of MeOH/FA=95/5, without oxybutynin, was added to the double blank and carryover assay wells. The equilibrated mixture was vortexed for 1 min and then centrifuged at 4,000 rpm for 5 min at 20 °C to precipitate protein. After centrifugation, 50 µL of the supernatant was transferred to a new well of the 96 well plate and 500 μL H2O/FA=100/0.2 added for LC-MS/MS analysis. Plasma and thigh samples from treatment groups and the calibration curve samples were processed on the same test occasion using the same procedure.
The calibration curve samples were generated by spiking aliquots of drug-free plasma or thigh homogenates with the test article dilution. The quality control (QC) samples, QH (high), QM (medium) and QL (low) were each assayed in duplicate. The PK parameters for the IV doses were obtained from the non-compartmental analysis (NCA) of the plasma and thigh homogenate data using WinNonlin (Phoenix® Build 8.3.1.5014).
LC-MS/MS runs were conducted with a SCIEX Triple Quad™ 5500+ mass sp ectrometer. Method development was conducted to determine appropriate conditions for LC-MS/MS analysis of fabimycin. A titration of a stock solution was performed to correlate peak areas and the corresponding concentration. […]

[2] = test system: E. coli AR-0055; assay: Urinary tract infection model; format: in vivo, mouse; conditions: 33.3 mg/kg IV three times a day, 168 h postinfection
Experimental: Urinary tract infection model
The protocol to assess fabimycin’s efficacy in a urinary tract infection was approved by the IACUC (protocol number:
IM011-12282020). In this study specific pathogen-free C3H/HeJ (Tlr4Lps-d) mice that were 7-8 weeks were used and provided with 5% glucose for 6 days prior to infection and for the duration of the experiment.12, 13 On day 0, mice were infected with E. coli AR-0055 (1.38 * 10^9 CFU/mouse, transurethral) while under pentobarbital anesthesia (50 mg/kg, IP). Treatment was initiated 96 hours post-infection with test articles. Fabimycin was formulated in 17% Cremophor EL/3% SBE-β-CD and administered intravenously while the control, colistin, was formulated in 0.9% NaCl and administered subcutaneously. Doses were administered once, twice, or three times daily for 3 consecutive days with animal sacrifice and burden enumeration at 168 hours post-infection. Tissues were collected and pathogen burden evaluated by dilution plating technique on nutrient agar plates.

[3] = female, BALB/c, mouse, plasma, 75 mg/kg, IV
[4] = female, BALB/c, mouse, plasma, 100 mg/kg, IV
[5] = female, BALB/c, mouse, thigh, 75 mg/kg, IV
[6] = female, BALB/c, mouse, thigh, 100 mg/kg, IV

`Cc1c(CN(C)C(=O)/C=C/c2cnc3c(c2)CC[C@H](N)C(=O)N3)oc2ccccc12` [fabimycin] gave a Cmax ([1]; female, BALB/c, mouse, plasma, iv, 75 mg/kg, plasma, 75 mg/kg, read-out: Cmax) of 34600 ng/mL, a Cmax ([1]; female, BALB/c, mouse, plasma, iv, 100 mg/kg, plasma, 100 mg/kg, read-out: Cmax) of 47300 ng/mL and a Cmax ([1]; female, BALB/c, mouse, thigh, iv, 75 mg/kg, thigh, 75 mg/kg, read-out: Cmax) of 33000 ng/g. For the same compound, the Cmax ([1]; female, BALB/c, mouse, thigh, iv, 100 mg/kg, thigh, 100 mg/kg, read-out: Cmax) was 60200 ng/g, the AUC(0-t) [1, 3] was 45400 ng·h/mL and the clearance [1, 3] was 26.9 mL/min/kg. The half-life [1, 3] was 1.4 h, the AUC(0-t) [1, 4] was 69800 ng·h/mL and the clearance [1, 4] was 23.5 mL/min/kg. It also gave a half-life [1, 4] of 1.4 h, an AUC(0-t) [1, 5] of 65200 ng·h/mL and a clearance [1, 5] of 18.9 mL/min/kg. The half-life [1, 5] was 1.39 h, the AUC(0-t) [1, 6] was 112000 ng·h/mL and the clearance [1, 6] was 14.7 mL/min/kg. The half-life [1, 6] was 1.24 h, the TimeHigh ([1]; plasma, 75 mg/kg, IV) was 5.70 h and the Cmax ([1]; plasma, 100 mg/kg, IV) was 47000 ng/mL. For the same compound, the TimeHigh ([1]; plasma, 100 mg/kg, IV) was 6.67 h, the TimeHigh ([1]; thigh, 75 mg/kg, IV) was “over 6 h” and the TimeHigh ([1]; thigh, 75 mg/kg, IV, listed as Fabimycin) was 6.22 h. For the same compound, the TimeHigh ([1]; thigh, 100 mg/kg, IV) was 7.19 h, the “log10 reduction in bacterial load relative to the vehicle” value ([2]; bladder) was 2.8 log10 and the “log10 reduction in bacterial load relative to the vehicle” value ([2]; kidney) was 1.9 log10. The “log10 reduction in bacterial load relative to the vehicle” value ([2]; liver) was 2.9 log10 and the “log10 reduction in bacterial load relative to the vehicle” value ([2]; spleen) was 3.0 log10.
